Data from article PMC5852967, “Specific features of L-histidine production by Escherichia coli concerned with feedback control of AICAR formation and inorganic phosphate/metal transport” (Microbial Cell Factories, 2018).

What was measured:
Assay type in all cases: biochemical
[1] = target: T1, ATP-phosphoribosyltransferase (ATP-PRT, HisG) (Escherichia coli, UniProt P60757); test: PR-ATP formation at […] nm with purified enzyme; Lineweaver–Burk plot
T1 construct: N-terminal His6-Tag HisG (HT-HisG)
T1 sequence (P60757 1-299): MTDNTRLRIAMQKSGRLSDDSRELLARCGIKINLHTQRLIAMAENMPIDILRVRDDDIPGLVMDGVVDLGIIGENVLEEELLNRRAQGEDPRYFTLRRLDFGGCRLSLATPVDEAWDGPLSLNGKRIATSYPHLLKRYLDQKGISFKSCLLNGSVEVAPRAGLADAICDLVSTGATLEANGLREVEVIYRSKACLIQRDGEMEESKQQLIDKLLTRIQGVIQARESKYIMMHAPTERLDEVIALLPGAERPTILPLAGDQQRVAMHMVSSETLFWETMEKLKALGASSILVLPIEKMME

[2] = target: T1, ATP-phosphoribosyltransferase (ATP-PRT, HisG); test: PR-ATP formation at […] nm from ATP and PRPP with purified enzyme
[3] = target: T2, HisG^E271K feedback-resistant ATP-phosphoribosyltransferase (Escherichia coli, UniProt P60757, E271K); test: PR-ATP formation at […] nm with purified enzyme; % inhibition at […]; conditions: read-out: Inhibition, % / AICAR / 1 mM
T2 construct: His6-tagged HisG^E271K (HT-HisG^E271K)

`Nc1ncnc2c1ncn2[C@@H]1O[C@H](COP(=O)(O)O)[C@@H](O)[C@H]1O` [AMP] showed a Ki [1] of 2150 µM.
With `Nc1ncnc2c1ncn2[C@@H]1O[C@H](COP(=O)(O)OP(=O)(O)OP(=O)(O)O)[C@@H](O)[C@H]1O` [ATP] the “PR-ATP formation at 290 nm from ATP and PRPP with purified enzyme” value [2] was “Both tested substances compete with ATP in HisG-catalyzed reactions”.
`NC(=O)c1ncn([C@@H]2O[C@H](COP(=O)(O)O)[C@@H](O)[C@H]2O)c1N` [AICAR, 5-aminoimidazole-4-carboxamide-1-beta-D-ribofuranosyl 5′-monophosphate] was tested, and the Ki [1] was 650 µM and the inhibition at 1000 µM [3] was 52%.
